Key:
Assay in all cases: relative viability (nuclei count vs DMSO), 5 days (fraction); higher = more cells survive
Tipifarnib + Foretinib = compound: Cn1cncc1[C@@](N)(c1ccc(Cl)cc1)c1ccc2c(c1)c(-c1cccc(Cl)c1)cc(=O)n2C [Tipifarnib] + COc1cc2c(Oc3ccc(NC(=O)C4(C(=O)Nc5ccc(F)cc5)CC4)cc3F)ccnc2cc1OCCCN1CCOCC1 [Foretinib] (partner 0.25 µM)
In short: (§1)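 Relative viability is defined as nuclei in treated wells over nuclei in vehicle wells. Duplicate plates were run and medians reported. Lung cancer cell lines in 1536-well plates were dosed by pin tool one day after seeding, with one drug or with a fixed anchor-drug dose plus five library-drug doses (not always all listed) in √10 steps, and nuclei were counted after 5 days.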

Tipifarnib + Alpelisib = compound: Cn1cncc1[C@@](N)(c1ccc(Cl)cc1)c1ccc2c(c1)c(-c1cccc(Cl)c1)cc(=O)n2C [Tipifarnib] + Cc1nc(NC(=O)N2CCC[C@H]2C(N)=O)sc1-c1ccnc(C(C)(C)C(F)(F)F)c1 [Alpelisib] (partner 2 µM)
In short: as §1

Tipifarnib + Pemetrexed = compound: Cn1cncc1[C@@](N)(c1ccc(Cl)cc1)c1ccc2c(c1)c(-c1cccc(Cl)c1)cc(=O)n2C [Tipifarnib] + Nc1nc2[nH]cc(CCc3ccc(C(=O)N[C@@H](CCC(=O)O)C(=O)O)cc3)c2c(=O)[nH]1 [Pemetrexed] (partner 0.2 µM)
In short: as §1

Tipifarnib + Olaparib = compound: Cn1cncc1[C@@](N)(c1ccc(Cl)cc1)c1ccc2c(c1)c(-c1cccc(Cl)c1)cc(=O)n2C [Tipifarnib] + O=C(c1cc(Cc2n[nH]c(=O)c3ccccc23)ccc1F)N1CCN(C(=O)C2CC2)CC1 [Olaparib] (partner 8 µM)
In short: as §1

| Cell Line | relative viability (Tipifarnib + Foretinib; first compound 0.01 µM) | relative viability (Tipifarnib + Foretinib; first compound 0.03162 µM) | relative viability (Tipifarnib + Foretinib; first compound 0.1 µM) | relative viability (Tipifarnib + Foretinib; first compound 0.3162 µM) | relative viability (Tipifarnib + Foretinib; first compound 1 µM) | relative viability (Tipifarnib + Alpelisib; first compound 0.01 µM) | relative viability (Tipifarnib + Alpelisib; first compound 0.03162 µM) | relative viability (Tipifarnib + Alpelisib; first compound 0.1 µM) | relative viability (Tipifarnib + Alpelisib; first compound 0.3162 µM) | relative viability (Tipifarnib + Alpelisib; first compound 1 µM) | relative viability (Tipifarnib + Pemetrexed; first compound 0.01 µM) | relative viability (Tipifarnib + Pemetrexed; first compound 0.03162 µM) | relative viability (Tipifarnib + Pemetrexed; first compound 0.1 µM) | relative viability (Tipifarnib + Pemetrexed; first compound 0.3162 µM) | relative viability (Tipifarnib + Pemetrexed; first compound 1 µM) | relative viability (Tipifarnib + Olaparib; first compound 0.01 µM) | relative viability (Tipifarnib + Olaparib; first compound 0.03162 µM) | relative viability (Tipifarnib + Olaparib; first compound 0.1 µM) | relative viability (Tipifarnib + Olaparib; first compound 0.3162 µM) | relative viability (Tipifarnib + Olaparib; first compound 1 µM) |
| --- | --- | --- | --- | --- | --- | --- | --- | --- | --- | --- | --- | --- | --- | --- | --- | --- | --- | --- | --- | --- |
| H3255 | 0.921 | 0.977 | 0.805 | 0.636 | 0.508 | 0.759 | 0.734 | 0.627 | 0.482 | 0.497 | 0.674 | 0.543 | 0.562 | 0.541 | 0.499 | 0.606 | 0.509 | 0.457 | 0.397 | 0.402 |
| EPLC-272H | 0.68 | 0.631 | 0.569 | 0.443 | 0.257 | 1.06 | 0.823 | 0.951 | 0.613 | 0.46 | 0.248 | 0.364 | 0.358 | 0.35 | 0.252 | 0.86 | 0.481 | 0.578 | 0.35 | 0.222 |
| PC-3 [JPC-3] | 1.06 | 1.02 | 0.955 | 0.749 | 0.6 | 1.04 | 1 | 0.816 | 0.78 | 0.662 | 1 | 1.11 | 0.592 | 0.448 | 0.42 | 1.19 | 0.978 | 0.981 | 0.775 | 0.654 |
| NCI-H1793 | 0.626 | 0.577 | 0.616 | 0.44 | 0.411 | 0.811 | 0.691 | 0.565 | 0.453 | 0.396 | 0.89 | 0.748 | 0.703 | 0.522 | 0.389 | 0.875 | 0.718 | 0.809 | 0.695 | 0.608 |
| EKVX | 0.818 | 0.767 | 0.811 | 0.705 | 0.324 | 0.895 | 0.883 | 0.83 | 0.595 | 0.652 | 0.433 | 0.396 | 0.39 | 0.411 | 0.289 | 0.881 | 0.829 | 0.682 | 0.586 | 0.521 |
| ChaGo-K-1 | 1.06 | 0.873 | 0.848 | 0.852 | 0.665 | – | – | – | – | – | 0.262 | 0.274 | 0.265 | 0.27 | 0.272 | 0.455 | 0.406 | 0.459 | 0.419 | 0.373 |
| NCI-H23 | 1.04 | 0.873 | 0.759 | 0.688 | 0.511 | 0.717 | 0.791 | 0.517 | 0.454 | 0.372 | 0.714 | 0.602 | 0.588 | 0.466 | 0.242 | 0.318 | 0.241 | 0.33 | 0.266 | 0.21 |
| EMC-BAC-2 | 1.06 | 0.921 | 1 | 0.9 | 0.82 | 0.741 | 0.665 | 0.684 | 0.651 | 0.566 | 0.412 | 0.434 | 0.45 | 0.462 | 0.469 | 0.502 | 0.441 | 0.482 | 0.427 | 0.429 |
| LOU-NH91 | 0.943 | 1 | 0.83 | 0.695 | 0.693 | 0.706 | 0.702 | 0.644 | 0.545 | 0.583 | 0.347 | 0.409 | 0.412 | 0.408 | 0.459 | 0.929 | 0.904 | 0.857 | 0.802 | 0.824 |
| LU99A | 0.757 | 0.651 | 0.653 | 0.497 | 0.395 | 0.442 | 0.36 | 0.297 | 0.261 | 0.238 | 0.201 | 0.202 | 0.2 | 0.217 | 0.196 | 0.293 | 0.23 | 0.226 | 0.245 | 0.202 |
| NCI-H1395 | 0.986 | 0.956 | 0.814 | 0.705 | 0.77 | 0.92 | 1.03 | 0.894 | 0.693 | 0.6 | 0.826 | 0.76 | 0.746 | 0.651 | 0.508 | 0.444 | 0.5 | 0.454 | 0.421 | 0.473 |
| NCI-H460 | 1 | 0.872 | 0.624 | 0.581 | 0.207 | 0.572 | 0.527 | 0.198 | 0.115 | 0.0453 | 0.0634 | 0.0696 | 0.0701 | 0.06 | 0.0551 | 0.462 | 0.369 | 0.219 | 0.207 | 0.208 |
| 201T | 1.13 | 1.09 | 1.02 | 0.839 | 0.875 | 1.01 | 1.04 | 1.04 | 0.98 | 0.977 | 0.363 | 0.338 | 0.371 | 0.317 | 0.346 | 0.851 | 0.86 | 0.83 | 0.733 | 0.793 |
| NCI-H1944 | 0.842 | 0.803 | 0.561 | 0.472 | 0.459 | 0.805 | 0.742 | 0.648 | 0.54 | 0.572 | 0.531 | 0.581 | 0.48 | 0.438 | 0.409 | 0.41 | 0.364 | 0.356 | 0.376 | 0.382 |
| NCI-H2405 | 1.06 | 1.03 | 1.03 | 0.993 | 0.923 | 0.863 | 0.832 | 0.7 | 0.718 | 0.72 | 1.03 | 1.07 | 0.964 | 0.967 | 0.866 | 0.88 | 0.899 | 0.903 | 0.801 | 0.838 |
| NCI-H1703 | 0.343 | 0.247 | 0.325 | 0.267 | 0.294 | 0.267 | 0.275 | 0.147 | 0.272 | 0.21 | – | – | – | – | – | 0.427 | 0.266 | 0.16 | 0.176 | 0.17 |
